Assay results: ChEMBL document CHEMBL1201862, “PubChem BioAssay data set” (2004)
Where “and” joins values, the source holds several entries; their conditions need not be identical. Equal values may be shown once. Calls of active or inactive are those of the source.

Tests used:
[1] = cytotoxicity in HEK-293T cells, dose response, cytotoxicity control for BCR NF-kB inhibitor project, luminescence, B-cell screen hits (AID 489021); type: functional, cell-based;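 further: HEK-293T cells carrying an NF-kB luciferase reporter; cells exposed to compound for about 14 hours before viability readout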
[2] = target: G-protein coupled receptor 55 (Homo sapiens, UniProt Q9Y2T6); assay: GPR55 antagonists blocking LPI-driven arrestin recruitment, primary screen, imaging, U2OS, beta-arrestin-GFP, LPI agonist (AID 2013); type: functional;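 further: antagonist potency measured as reduced agonist-driven arrestin aggregation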
[3] = system: Streptococcus sp. 'group A'; assay: growth inhibition of control SK(-) GAS strain, dose response, counter-screen for streptokinase expression inhibitor project, luminescence, kanamycin, BacTiterGlo, confirmation (AID 1900); type: functional, organism-based
[4] = target: Luciferin 4-monooxygenase (Photinus pyralis, UniProt P08659); assay: firefly luciferase enzyme inhibitors, dose response, biochemical, luminescence (AID 1891)
[5] = Luminescence Cell-Based Dose Confirmation HTS to Identify Inhibitors of Platelet Dense Granule Release. [Related pubchem assays: 1663 (Primary HTS), 1678 (Summary of Project)]; type: functional
[6] = target: T1, Kappa-type opioid receptor (Homo sapiens, UniProt P41145); type: functional
Beta-galactosidase [7] = target: T2, Beta-galactosidase (Escherichia coli, UniProt Q8VNN2); type: functional
[8] = target: T1, Kappa-type opioid receptor; type: functional; remark: listed apart in the source
Streptococcus = assay: Group A Streptococcus viability loss, dose response, counter-screen for streptokinase expression inhibitor project, luminescence, BacTiterGlo (AID 1915); type: functional, organism-based;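 further: potency for reduction of bacterial viability or growth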
[9] = THP-1 cell cytotoxicity, dose response, cytotoxicity control for non-replicating M. tuberculosis project (AID 489025); type: functional
[10] = HepG2 cell cytotoxicity, dose response, cytotoxicity control for non-replicating M. tuberculosis project (AID 489018); type: functional; conditions: Mycobacterium tuberculosis
[11] = Vero E6 cell cytotoxicity, dose response, cytotoxicity control for non-replicating M. tuberculosis project, secondary assay (AID 492998); type: functional, VeroE6; conditions: Vero C1008
cells = type: functional
INS1 = assay: beta cell apoptosis inhibitors, cytokine rescue, dose response, luminescence, retest (AID 449756); type: functional, cell-based; conditions: Rattus norvegicus;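 further: cell death triggered by IL-1 beta plus TNF-alpha plus IFN-gamma mixture; protective hits raise ATP signal compared with cytokine alone wells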
Vero = assay: cells; type: functional; conditions: Chlorocebus sabaeus
[12] = A549 cell cytotoxicity, dose response, cytotoxicity control, plate reader, cherry-pick, antagonist series (AID 743412); type: functional, cell-based
[13] = HepG2 cell cytotoxicity, dose response, cytotoxicity control, plate reader, cherry-pick, antagonist series (AID 743416); type: functional, cell-based
[14] = LGR2 antagonists, dose response, cell-based, HEK293, CRE-luciferase reporter, cherry pick, set 2 (AID 743343); type: functional;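 further: transfected cells were stimulated with diluted bursicon conditioned medium after compound addition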
[15] = MC4R antagonists, dose response, counter-screen for LGR2 antagonist project, cell-based, plate reader, cherry pick (AID 743444); type: functional;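 further: transfected HEK 293 cells stimulated with alpha-MSH peptide; potency of inhibitors of the alpha-MSH evoked signal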
[16] = HEK293 cell cytotoxicity, dose response, cytotoxicity control, plate reader, cherry-picked samples (AID 743446); type: functional, cell-based
[17] = target: T3, Eukaryotic translation initiation factor 2-alpha kinase 3 (Homo sapiens, UniProt Q9NZJ5); assay: Dose response cell-based high-throughput screening assay to measure PERK inhibition. [Related pubchem assays: 1416 ]; type: functional
T3 sequence (Q9NZJ5 whole entry): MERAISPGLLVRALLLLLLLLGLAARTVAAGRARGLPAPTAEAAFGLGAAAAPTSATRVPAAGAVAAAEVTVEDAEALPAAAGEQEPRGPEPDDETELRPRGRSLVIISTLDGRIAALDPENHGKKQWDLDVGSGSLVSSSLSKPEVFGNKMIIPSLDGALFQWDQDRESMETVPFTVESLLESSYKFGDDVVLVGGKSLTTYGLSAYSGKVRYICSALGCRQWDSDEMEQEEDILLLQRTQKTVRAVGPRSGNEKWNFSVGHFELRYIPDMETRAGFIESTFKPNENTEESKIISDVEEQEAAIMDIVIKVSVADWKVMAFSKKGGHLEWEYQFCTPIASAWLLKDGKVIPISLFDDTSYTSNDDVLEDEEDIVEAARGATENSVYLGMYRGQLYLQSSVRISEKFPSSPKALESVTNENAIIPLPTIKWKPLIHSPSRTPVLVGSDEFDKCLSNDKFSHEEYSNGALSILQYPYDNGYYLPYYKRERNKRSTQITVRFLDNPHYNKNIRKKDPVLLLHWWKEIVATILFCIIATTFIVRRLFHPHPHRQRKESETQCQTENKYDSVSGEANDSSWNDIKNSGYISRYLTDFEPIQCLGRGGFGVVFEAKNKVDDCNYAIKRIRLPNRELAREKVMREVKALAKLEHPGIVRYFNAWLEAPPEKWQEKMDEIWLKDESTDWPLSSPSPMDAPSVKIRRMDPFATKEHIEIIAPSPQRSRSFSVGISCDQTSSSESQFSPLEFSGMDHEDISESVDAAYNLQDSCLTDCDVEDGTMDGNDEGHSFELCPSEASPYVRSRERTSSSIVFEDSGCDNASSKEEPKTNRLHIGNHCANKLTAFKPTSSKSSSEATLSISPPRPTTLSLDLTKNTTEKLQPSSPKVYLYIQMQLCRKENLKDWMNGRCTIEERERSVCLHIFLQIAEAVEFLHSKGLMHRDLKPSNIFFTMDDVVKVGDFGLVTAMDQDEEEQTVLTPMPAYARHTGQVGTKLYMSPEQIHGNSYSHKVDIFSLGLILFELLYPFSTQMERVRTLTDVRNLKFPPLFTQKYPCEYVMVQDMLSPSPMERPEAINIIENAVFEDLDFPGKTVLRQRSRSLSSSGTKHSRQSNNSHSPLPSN

[18] = target: T3, Eukaryotic translation initiation factor 2-alpha kinase 3; assay: Counterscreen assay for PERK inhibitors: Dose response cell-based high throughput screening assay to measure inhibition of PERK at 6 hours. [Related pubchem assays: 1522, 1416 ]; type: functional
H9c2 = assay: cells; type: functional, cell-based; conditions: Rattus norvegicus, H9c2, Myocardium;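 further: confirmatory concentration-response retest of ultra-high-throughput screening hits for modulation of myocardial damage; cell death induced by hydrogen peroxide oxidative stress; compound pretreatment for 60 min then peroxide exposure for 2 h; potency is for protecting the cells against peroxide damage rather than for killing them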
[19] = target: Alkaline phosphatase, placental type (Homo sapiens, UniProt P05187); assay: PLAP enzyme inhibitors, confirmation, biochemical, luminescence (AID 1512); type: functional
Cytochrome P450 2C9 = Cytochrome P450 2C9 (Homo sapiens, UniProt P11712)
HEK293 [20] = assay: NOD1 signaling inhibitors, primary screen, cell-based, luminescence, uHTS (AID 1578); type: functional; conditions: Homo sapiens
HEK293 [21] = assay: cells; type: functional, cell-based; conditions: Homo sapiens
HEK293 [22] = assay: cells; type: functional, cell-based; conditions: Homo sapiens; remark: listed apart in the source
HEK293 [23] = assay: NOD2 signaling inhibitors in MDP-stimulated cells, cell-based, uHTS, luminescence (AID 2001); type: functional; conditions: Homo sapiens
Tumor necrosis factor = Tumor necrosis factor (Homo sapiens, UniProt P01375); assay: TNFa-triggered NF-kB activation inhibitors, SAR follow-up, cell-based, revised (AID 2337); type: functional
[24] = target: Nucleotide-binding oligomerization domain-containing protein 1 (Homo sapiens, UniProt Q9Y239); assay: NOD1 signaling inhibitors, SAR follow-up, revised (AID 2333); type: functional
HEK293 [25] = assay: cells; conditions: Homo sapiens
[26] = target: T4, C-C chemokine receptor type 6 (Homo sapiens, UniProt P51684); assay: CCR6 receptor antagonists, dose response, cell-based, luminescent beta-arrestin readout (AID 504728); type: functional
T4 sequence (P51684 whole entry): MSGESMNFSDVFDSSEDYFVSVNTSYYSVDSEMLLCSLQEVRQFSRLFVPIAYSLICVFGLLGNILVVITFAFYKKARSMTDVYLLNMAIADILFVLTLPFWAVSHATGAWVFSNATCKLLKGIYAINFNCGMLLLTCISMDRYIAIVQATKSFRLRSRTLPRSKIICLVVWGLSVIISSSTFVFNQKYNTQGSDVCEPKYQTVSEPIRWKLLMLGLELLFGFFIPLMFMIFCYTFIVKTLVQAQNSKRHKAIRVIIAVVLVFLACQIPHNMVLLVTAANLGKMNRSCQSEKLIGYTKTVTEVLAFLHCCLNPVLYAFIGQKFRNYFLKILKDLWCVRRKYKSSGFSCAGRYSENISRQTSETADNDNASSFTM

Beta-galactosidase [27] = target: T2, Beta-galactosidase; assay: beta-galactosidase enzyme inhibitors and activators, dose response, artefact control for CCR6 antagonist project, biochemical, E. coli enzyme, set 3 (AID 504712); type: functional

Nucleotide-binding oligomerization domain-containing protein 1, sequence (Q9Y239 whole entry, the tested form may be a part): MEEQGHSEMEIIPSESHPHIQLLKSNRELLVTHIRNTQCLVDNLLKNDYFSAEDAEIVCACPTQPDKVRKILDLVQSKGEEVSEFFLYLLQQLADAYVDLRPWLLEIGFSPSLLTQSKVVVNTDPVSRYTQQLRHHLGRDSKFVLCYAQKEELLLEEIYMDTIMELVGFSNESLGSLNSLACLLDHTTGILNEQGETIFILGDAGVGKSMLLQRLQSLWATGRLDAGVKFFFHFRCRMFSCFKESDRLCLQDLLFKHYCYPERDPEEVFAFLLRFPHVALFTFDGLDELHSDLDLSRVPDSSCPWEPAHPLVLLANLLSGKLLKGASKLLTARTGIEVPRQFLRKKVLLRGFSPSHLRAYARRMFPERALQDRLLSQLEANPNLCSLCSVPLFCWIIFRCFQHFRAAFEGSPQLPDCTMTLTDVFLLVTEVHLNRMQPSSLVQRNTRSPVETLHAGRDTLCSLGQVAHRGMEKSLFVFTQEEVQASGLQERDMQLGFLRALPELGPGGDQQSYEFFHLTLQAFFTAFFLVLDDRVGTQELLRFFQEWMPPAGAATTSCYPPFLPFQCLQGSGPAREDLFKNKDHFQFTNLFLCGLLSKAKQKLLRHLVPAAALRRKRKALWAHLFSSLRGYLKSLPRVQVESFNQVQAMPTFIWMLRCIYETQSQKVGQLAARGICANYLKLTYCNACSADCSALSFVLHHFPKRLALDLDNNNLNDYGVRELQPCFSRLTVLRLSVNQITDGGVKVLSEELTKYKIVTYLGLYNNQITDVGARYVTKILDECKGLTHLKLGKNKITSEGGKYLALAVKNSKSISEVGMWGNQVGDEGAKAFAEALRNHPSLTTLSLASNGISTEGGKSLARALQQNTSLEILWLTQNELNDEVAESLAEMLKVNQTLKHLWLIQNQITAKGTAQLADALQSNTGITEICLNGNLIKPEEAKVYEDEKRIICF
G-protein coupled receptor 55, sequence (Q9Y2T6 whole entry): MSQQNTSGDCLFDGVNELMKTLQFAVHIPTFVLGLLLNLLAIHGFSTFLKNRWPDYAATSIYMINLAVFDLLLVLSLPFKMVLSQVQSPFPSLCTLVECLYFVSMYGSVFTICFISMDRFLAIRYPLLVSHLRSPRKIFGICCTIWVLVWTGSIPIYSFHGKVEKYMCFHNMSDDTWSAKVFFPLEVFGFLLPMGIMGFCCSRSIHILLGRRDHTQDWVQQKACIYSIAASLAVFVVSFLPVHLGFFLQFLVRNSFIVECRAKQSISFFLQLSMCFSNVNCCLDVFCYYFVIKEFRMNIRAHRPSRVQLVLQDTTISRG
T2 sequence (Q8VNN2 whole entry): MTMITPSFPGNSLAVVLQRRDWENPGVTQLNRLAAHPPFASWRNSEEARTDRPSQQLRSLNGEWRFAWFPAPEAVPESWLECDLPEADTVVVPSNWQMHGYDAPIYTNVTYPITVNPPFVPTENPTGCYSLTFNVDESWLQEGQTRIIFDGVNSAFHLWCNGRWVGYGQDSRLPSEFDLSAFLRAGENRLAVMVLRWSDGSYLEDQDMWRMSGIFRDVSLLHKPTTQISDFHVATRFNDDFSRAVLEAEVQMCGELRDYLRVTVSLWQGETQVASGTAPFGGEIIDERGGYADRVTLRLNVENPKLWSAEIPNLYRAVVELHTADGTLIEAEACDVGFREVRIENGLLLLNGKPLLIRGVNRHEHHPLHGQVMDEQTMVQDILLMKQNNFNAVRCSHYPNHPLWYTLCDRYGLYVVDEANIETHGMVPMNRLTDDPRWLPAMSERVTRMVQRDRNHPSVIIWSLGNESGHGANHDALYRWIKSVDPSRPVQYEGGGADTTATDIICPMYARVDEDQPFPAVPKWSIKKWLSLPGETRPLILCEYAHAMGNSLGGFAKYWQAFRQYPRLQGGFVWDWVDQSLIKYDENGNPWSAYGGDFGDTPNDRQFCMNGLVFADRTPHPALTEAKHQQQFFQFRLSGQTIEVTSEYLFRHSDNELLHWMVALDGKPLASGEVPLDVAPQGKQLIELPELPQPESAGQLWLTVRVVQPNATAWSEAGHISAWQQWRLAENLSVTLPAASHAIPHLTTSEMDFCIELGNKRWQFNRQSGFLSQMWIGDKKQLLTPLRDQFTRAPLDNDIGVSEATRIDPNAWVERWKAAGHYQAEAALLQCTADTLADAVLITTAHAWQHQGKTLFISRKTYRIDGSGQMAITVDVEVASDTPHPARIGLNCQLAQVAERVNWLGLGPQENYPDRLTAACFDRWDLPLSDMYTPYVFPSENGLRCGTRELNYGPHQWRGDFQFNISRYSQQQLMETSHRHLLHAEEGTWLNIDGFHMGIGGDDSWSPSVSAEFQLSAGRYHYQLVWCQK
T1 sequence (P41145 whole entry): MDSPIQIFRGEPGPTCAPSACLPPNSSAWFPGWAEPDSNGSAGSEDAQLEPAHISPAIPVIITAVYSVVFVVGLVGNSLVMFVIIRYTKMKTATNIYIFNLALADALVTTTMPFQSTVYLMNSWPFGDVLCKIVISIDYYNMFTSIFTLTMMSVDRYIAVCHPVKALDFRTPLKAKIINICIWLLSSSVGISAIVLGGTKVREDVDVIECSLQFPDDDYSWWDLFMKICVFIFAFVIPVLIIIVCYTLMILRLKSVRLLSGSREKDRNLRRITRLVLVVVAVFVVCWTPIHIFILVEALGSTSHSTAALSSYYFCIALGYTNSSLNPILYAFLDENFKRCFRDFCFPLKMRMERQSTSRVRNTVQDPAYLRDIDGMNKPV
Tumor necrosis factor, sequence (P01375 whole entry, the tested form may be a part): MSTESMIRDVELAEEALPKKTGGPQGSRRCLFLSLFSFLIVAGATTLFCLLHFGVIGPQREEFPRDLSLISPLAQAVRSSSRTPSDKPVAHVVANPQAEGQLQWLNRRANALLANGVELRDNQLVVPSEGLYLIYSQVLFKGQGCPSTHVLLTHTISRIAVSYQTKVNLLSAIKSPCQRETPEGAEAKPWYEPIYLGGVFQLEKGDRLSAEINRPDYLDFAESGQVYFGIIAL
Luciferin 4-monooxygenase, sequence (P08659 whole entry): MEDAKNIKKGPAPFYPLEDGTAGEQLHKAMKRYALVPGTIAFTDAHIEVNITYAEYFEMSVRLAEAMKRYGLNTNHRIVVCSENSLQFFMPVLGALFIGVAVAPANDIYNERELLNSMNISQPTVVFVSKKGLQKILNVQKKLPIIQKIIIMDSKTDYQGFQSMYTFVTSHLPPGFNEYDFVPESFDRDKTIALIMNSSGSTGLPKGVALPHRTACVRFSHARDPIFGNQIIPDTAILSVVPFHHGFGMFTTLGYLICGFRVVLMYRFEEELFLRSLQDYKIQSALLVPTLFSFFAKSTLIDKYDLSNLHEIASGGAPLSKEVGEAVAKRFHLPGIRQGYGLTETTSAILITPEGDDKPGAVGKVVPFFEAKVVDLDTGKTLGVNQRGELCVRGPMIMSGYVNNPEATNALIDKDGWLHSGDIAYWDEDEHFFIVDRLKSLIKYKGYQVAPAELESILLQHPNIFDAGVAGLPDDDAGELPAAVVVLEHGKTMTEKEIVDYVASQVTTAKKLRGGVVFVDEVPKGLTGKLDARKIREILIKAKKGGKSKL
Alkaline phosphatase, placental type, sequence (P05187 whole entry): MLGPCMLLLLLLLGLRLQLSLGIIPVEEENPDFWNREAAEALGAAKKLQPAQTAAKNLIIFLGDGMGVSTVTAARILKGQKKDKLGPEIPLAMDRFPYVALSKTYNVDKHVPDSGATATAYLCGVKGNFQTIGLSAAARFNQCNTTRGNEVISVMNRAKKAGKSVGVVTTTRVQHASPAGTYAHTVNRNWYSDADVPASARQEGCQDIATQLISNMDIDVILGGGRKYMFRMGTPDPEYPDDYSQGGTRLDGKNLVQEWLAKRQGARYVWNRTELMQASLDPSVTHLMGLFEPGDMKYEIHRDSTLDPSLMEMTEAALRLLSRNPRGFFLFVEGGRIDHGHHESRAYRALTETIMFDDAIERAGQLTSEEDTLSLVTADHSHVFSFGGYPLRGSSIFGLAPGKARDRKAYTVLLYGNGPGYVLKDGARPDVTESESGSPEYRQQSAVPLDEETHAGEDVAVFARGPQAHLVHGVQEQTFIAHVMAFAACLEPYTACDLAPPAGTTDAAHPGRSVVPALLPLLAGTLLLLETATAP
Cytochrome P450 2C9, sequence (P11712 whole entry): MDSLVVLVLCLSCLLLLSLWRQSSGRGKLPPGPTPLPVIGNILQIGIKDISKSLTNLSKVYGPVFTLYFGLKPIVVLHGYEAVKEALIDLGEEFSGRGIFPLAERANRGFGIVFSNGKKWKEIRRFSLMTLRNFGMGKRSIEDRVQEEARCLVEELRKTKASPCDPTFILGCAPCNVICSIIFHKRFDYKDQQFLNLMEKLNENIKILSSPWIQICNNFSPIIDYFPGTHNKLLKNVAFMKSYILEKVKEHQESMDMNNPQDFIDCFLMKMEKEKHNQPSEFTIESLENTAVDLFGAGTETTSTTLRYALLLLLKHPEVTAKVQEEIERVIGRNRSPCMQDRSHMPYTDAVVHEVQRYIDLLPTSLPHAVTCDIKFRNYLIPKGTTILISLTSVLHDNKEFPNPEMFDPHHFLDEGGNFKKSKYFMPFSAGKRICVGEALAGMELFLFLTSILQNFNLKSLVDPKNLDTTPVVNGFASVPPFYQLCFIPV

O=C(CCCN1C(=O)S/C(=C\C=C\c2ccccc2)C1=O)Nc1ccc(O)cc1
IC50 [1]: > 80 µM (inactive)

CCN1CC2=C(OC(N)=C(C#N)C2c2cccs2)/C(=C/c2cccs2)C1 (stereo not given)
IC50 [2]: 5.29 µM (active)

C=CCn1c(S)nnc1CCc1cc(C(C)(C)C)c(O)c(C(C)(C)C)c1
IC50 [2]: 3 µM (active)

CCOc1ccc2nc(NC(=O)c3ccccn3)sc2c1
EC50 [3]: 2.98 µM (active)
EC50 [4]: 0.407 µM (active)
EC50 [5]: 5.58 µM (active)
IC50 [6]: 6.51 µM (active)
EC50 (Beta-galactosidase [7]): > 31.5 µM (inactive)
IC50 [8]: > 32 µM
EC50 (Streptococcus): 7.36 µM (active)
CC50 [9]: 8.2 µM (active)
CC50 [10]: 19.3 µM (active)
CC50 [11]: 7.54 µM (active)
IC50 (cells): 0.43 µM (active)
AC50 (INS1): 3.32 µM (active)
CC50 (Vero): 20.4 µM (active)
AC50 [12]: 3.99 µM (active)
AC50 [13]: 5.82 µM (active)
AC50 [14]: 2 µM (active)
AC50 [15]: 2.42 µM (active)
AC50 [16]: 8.52 µM (active)

COC(=O)Cc1nnc(O)c2ccccc12
EC50 [17]: > 55.7 µM (not active)
EC50 [18]: > 55.7 µM (not active)
IC50 (H9c2): > 79 µM (inactive)

O=C(CCc1ccccc1)Nc1nnc[nH]1
IC50 [19]: > 100 µM (inactive)
AC50 (Cytochrome P450 2C9): 39.8 µM (inconclusive)

CCOC(=O)c1ccc(NC(=O)c2ccc(CN3CCc4ccccc4C3)cc2)cc1
EC50 (HEK293 [20]): 0.85 µM (active)
IC50 (HEK293 [21]): < 0.312 µM (active)
IC50 (HEK293 [22]): > 20 µM (inactive)
IC50 (HEK293 [23]): 1.3 µM (inactive)
IC50 (Tumor necrosis factor): 1.4 µM (active) and 140 nM (active)
IC50 [24]: 335 nM (active) and 152 nM (active)
IC50 (HEK293 [25]): > 20 µM (inactive)

Cc1nn(-c2ccccc2)c2sc(C(=O)N(CC(=O)NC(C)(C)C)Cc3ccco3)cc12
IC50 [26]: > 66.6 µM (inactive)
IC50 (Beta-galactosidase [27]): > 66.6 µM (inactive)
